Experimental data from the supplement of paper PMC11061612.

Legend:
Assay in all cases: combination Emax (second highest fraction inhibited in the dose matrix, 72 h); higher = more inhibition; extreme values may be limits of the assay
AU565 (Breast Carcinoma) = system: AU565 (Breast Carcinoma)
How it was run: (§1)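 After 24 hours at 37°C and 5% CO2 in 1536-well plates, cells in DMEM/F12 or RPMI plus 10% FBS received two-drug dose matrices for 72 hours. Viability came from CellTiter-Glo 2.0 luminescence and was scaled as inhibition, anchored at 0 by vehicle wells and at 1 by blank wells. Combination Emax is taken as the second-highest inhibition in the matrix, and Bliss excess as the observed combination effect less EA + EB − EA·EB, with EA and EB the single-agent effects.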

[1] = system: JHU-022 (Oral Cavity Carcinoma)
How it was run: as §1

NB13 (Neuroblastoma) = system: NB13 (Neuroblastoma)
How it was run: as §1

[2] = system: NCI-H1651 (Lung Adenocarcinoma)
How it was run: as §1

[3] = system: KYSE-140 (Esophageal Squamous Cell Carcinoma)
How it was run: as §1

[4] = system: MDA-MB-436 (Breast Carcinoma)
How it was run: as §1

[5] = system: SW620 (Colorectal Carcinoma)
How it was run: as §1

HCC70 (Breast Carcinoma) = system: HCC70 (Breast Carcinoma)
How it was run: as §1

[6] = system: CGTH-W-1 (Thyroid Gland Carcinoma)
How it was run: as §1

[7] = system: NCI-H1703 (Squamous Cell Lung Carcinoma)
How it was run: as §1

[8] = system: CA46 (Burkitt's Lymphoma)
How it was run: as §1

[9] = system: NCI-H2228 (Lung Adenocarcinoma)
How it was run: as §1

[10] = system: JIMT-1 (Breast Carcinoma)
How it was run: as §1

[11] = system: HCC1428 (Breast Carcinoma)
How it was run: as §1

EW-7 (Ewing's Sarcoma) = system: EW-7 (Ewing's Sarcoma)
How it was run: as §1

A204 (Rhabdomyosarcoma) = system: A204 (Rhabdomyosarcoma)
How it was run: as §1

[12] = system: UACC-812 (Breast Carcinoma)
How it was run: as §1

[13] = system: EPLC-272H (Other Solid Carcinomas)
How it was run: as §1

[14] = system: SK-HEP-1 (Hepatocellular Carcinoma)
How it was run: as §1

5637 (Bladder Carcinoma) = system: 5637 (Bladder Carcinoma)
How it was run: as §1

SMILES	combination Emax (AU565 (Breast Carcinoma))	combination Emax [1]	combination Emax (NB13 (Neuroblastoma))	combination Emax [2]	combination Emax [3]	combination Emax [4]	combination Emax [5]	combination Emax (HCC70 (Breast Carcinoma))	combination Emax [6]	combination Emax [7]	combination Emax [8]	combination Emax [9]	combination Emax [10]	combination Emax [11]	combination Emax (EW-7 (Ewing's Sarcoma))	combination Emax (A204 (Rhabdomyosarcoma))	combination Emax [12]	combination Emax [13]	combination Emax [14]	combination Emax (5637 (Bladder Carcinoma))
CN(C)CCCOc1ccc(-c2ccc3ncc4c(c3c2)n(C2CCOCC2)c(=O)n4C)cn1 [AZD0156] + C=CCn1c(=O)c2cnc(Nc3ccc(N4CCN(C)CC4)cc3)nc2n1-c1cccc(C(C)(C)O)n1 [AZD1775] (first compound max 1 µM, partner max 1 µM)	0.454	0.36	0.906	0.62	0.844	0.195	0.495	0.542	0.188	0.967	0.636	0.5	0.488	0.125	0.884	0.27	0.156	0.771	0.469	0.745
CN(C)CCCOc1ccc(-c2ccc3ncc4c(c3c2)n(C2CCOCC2)c(=O)n4C)cn1 [AZD0156] + CCN(CCO)CCCOc1ccc2c(Nc3cc(CC(=O)Nc4cccc(F)c4)[nH]n3)ncnc2c1 [AZD2811] (first compound max 1 µM, 7x7, partner max 1 µM)	0.208	0.193	0.479	0.107	0.288	0.0531	0.158	0.604	0.196	0.506	0.291	0.384	0.0631	0.161	0.403	0.297	0.148	0.415	0.255	0.609
CN(C)CCCOc1ccc(-c2ccc3ncc4c(c3c2)n(C2CCOCC2)c(=O)n4C)cn1 [AZD0156] + C[C@@H]1COCCN1C2=NC(=NC(=C2)C3(CC3)[S@](=N)(=O)C)C4=C5C=CNC5=NC=C4 [AZD6738] (first compound max 1 µM, 7x7, partner max 10 µM)	0.473	0.525	0.906	0.649	0.934	0.23	0.566	0.829	0.35	0.856	0.746	0.517	0.799	0.132	0.935	0.411	0.295	0.903	0.391	0.712
C=CCn1c(=O)c2cnc(Nc3ccc(N4CCN(C)CC4)cc3)nc2n1-c1cccc(C(C)(C)O)n1 [AZD1775] + C[C@@H]1COCCN1C2=NC(=NC(=C2)C3(CC3)[S@](=N)(=O)C)C4=C5C=CNC5=NC=C4 [AZD6738] (first compound max 1 µM, partner max 10 µM)	0.603	0.601	0.953	0.823	0.967	0.478	0.83	0.898	0.434	0.958	0.739	0.653	0.76	0.49	0.944	0.369	0.531	0.882	0.65	0.898
C=CCn1c(=O)c2cnc(Nc3ccc(N4CCN(C)CC4)cc3)nc2n1-c1cccc(C(C)(C)O)n1 [AZD1775] + O=C(c1cc(Cc2n[nH]c(=O)c3ccccc23)ccc1F)N1CCN(C(=O)C2CC2)CC1 [Olaparib] (first compound max 1 µM, partner max 10 µM)	0.449	0.432	0.935	0.736	0.733	0.271	0.603	0.56	0.193	0.962	0.53	0.592	0.558	0.375	0.82	0.24	0.14	0.761	0.462	0.836
CCN(CCO)CCCOc1ccc2c(Nc3cc(CC(=O)Nc4cccc(F)c4)[nH]n3)ncnc2c1 [AZD2811] + C=CCn1c(=O)c2cnc(Nc3ccc(N4CCN(C)CC4)cc3)nc2n1-c1cccc(C(C)(C)O)n1 [AZD1775] (first compound max 1 µM, partner max 1 µM)	0.449	0.388	0.924	0.634	0.826	0.235	0.461	0.589	0.217	0.94	0.489	0.598	0.488	0.158	0.817	0.27	0.116	0.803	0.355	0.893
CCN(CCO)CCCOc1ccc2c(Nc3cc(CC(=O)Nc4cccc(F)c4)[nH]n3)ncnc2c1 [AZD2811] + C[C@@H]1COCCN1C2=NC(=NC(=C2)C3(CC3)[S@](=N)(=O)C)C4=C5C=CNC5=NC=C4 [AZD6738] (first compound max 1 µM, 7x7, partner max 10 µM)	0.362	0.535	0.941	0.56	0.92	0.311	0.417	0.797	0.35	0.834	0.482	0.517	0.677	0.172	0.902	0.387	0.323	0.849	0.42	0.827
CCN(CCO)CCCOc1ccc2c(Nc3cc(CC(=O)Nc4cccc(F)c4)[nH]n3)ncnc2c1 [AZD2811] + O=C(c1cc(Cc2n[nH]c(=O)c3ccccc23)ccc1F)N1CCN(C(=O)C2CC2)CC1 [Olaparib] (first compound max 1 µM, 7x7, partner max 10 µM)	0.214	0.271	0.626	0.248	0.355	0.144	0.281	0.675	0.291	0.519	0.248	0.268	0.0806	0.218	0.361	0.387	0.181	0.204	0.362	0.622
Cc1c2c(nn1C)CSCc1cc(n(C)n1)CSc1cc(c3ccccc3c1)OCCCc1c(C(=O)O)n(C)c3c-2c(Cl)ccc13 [AZD5991] + CC1(C)CCC(CN2CCN(c3ccc(C(=O)NS(=O)(=O)c4ccc(NCC5CCOCC5)c([N+](=O)[O-])c4)c(Oc4cnc5[nH]ccc5c4)c3)CC2)=C(c2ccc(Cl)cc2)C1 [Venetoclax] (first compound max 1 µM, 7x7, partner max 1 µM)	1	0.116	0.546	0.213	0.485	0.0835	0.191	0.938	0.257	–	0.118	0.184	0.215	0.987	0.487	0.513	0.694	0.901	0.45	0.217
CC(=O)c1c(C)c2cnc(Nc3ccc(N4CCNCC4)cn3)nc2n(C2CCCC2)c1=O [Palbociclib] + CC1(C)CCC(CN2CCN(c3ccc(C(=O)NS(=O)(=O)c4ccc(NCC5CCOCC5)c([N+](=O)[O-])c4)c(Oc4cnc5[nH]ccc5c4)c3)CC2)=C(c2ccc(Cl)cc2)C1 [Venetoclax] (first compound max 10 µM, 7x7, partner max 1 µM)	0.262	0.105	0.283	0.0383	0.199	0.164	0.385	0.0684	0.122	0.486	0.355	0.238	0.107	0.0427	0.409	0.308	–	0.243	0.621	0.231
CC(=O)c1c(C)c2cnc(Nc3ccc(N4CCNCC4)cn3)nc2n(C2CCCC2)c1=O [Palbociclib] + Cc1c2c(nn1C)CSCc1cc(n(C)n1)CSc1cc(c3ccccc3c1)OCCCc1c(C(=O)O)n(C)c3c-2c(Cl)ccc13 [AZD5991] (first compound max 10 µM, 7x7, partner max 1 µM)	0.998	0.167	0.389	0.143	0.301	0.229	0.466	0.867	0.176	0.815	0.304	0.247	0.179	0.952	0.494	0.37	–	0.822	0.848	0.197
CC(=O)c1c(C)c2cnc(Nc3ccc(N4CCNCC4)cn3)nc2n(C2CCCC2)c1=O [Palbociclib] + Cn1cnc2c(F)c(Nc3ccc(Br)cc3Cl)c(C(=O)NOCCO)cc21 [Selumetinib] (first compound max 10 µM, 7x7, partner max 10 µM)	0.277	0.54	0.333	0.0478	0.188	0.224	0.72	0.269	0.14	0.584	0.345	0.335	0.0628	0.165	0.669	0.399	–	0.7	0.372	0.345
